Assay results taken from US4443436A, “C-20-Modified macrolide derivatives of the macrolide antibiotics tylosin, desmycosin, macrocin, and lactenocin” (Eli Lilly and Company, priority 1982, dated 1984).
In brackets after ≈: the same amount, converted by molar mass. Like-named read-outs stand apart in the source and are kept apart here.

Experiments:
[1] = test system: Pasteurella multocida 60A; test: MIC, broth-dilution microtiter test, Pasteurella multocida 60A; type: cell-based
From the text: (§1) The MIC's in Table X were obtained using conventional broth-dilution microtiter tests.

[2] = test system: Staphylococcus epidermidis EPI2; test: MIC, standard agar-dilution assay, Staphylococcus epidermidis EPI2; type: cell-based
[3] = test system: Streptococcus bovis 80; test: MIC, broth-dilution microtiter test, Streptococcus bovis 80; type: cell-based
From the text: as §1

[4] = test system: Mycoplasma synoviae; test: MIC, broth-dilution microtiter test, Mycoplasma synoviae; type: cell-based
From the text: as §1

[5] = test system: Streptococcus Group D X66; test: MIC, standard agar-dilution assay, Streptococcus Group D X66; type: cell-based
[6] = test system: Streptococcus pneumoniae Park I; test: microbe, parasite or virus in culture; type: cell-based
[7] = test system: Staphylococcus aureus S13E; test: MIC, standard agar-dilution assay, Staphylococcus aureus S13E; type: cell-based
[8] = test system: Mycoplasma hyorhinis; test: MIC, broth-dilution microtiter test, Mycoplasma hyorhinis; type: cell-based
From the text: as §1

[9] = test system: Pasteurella multocida 17E; test: MIC, broth-dilution microtiter test, Pasteurella multocida 17E; type: cell-based
From the text: as §1

[10] = test system: Staphylococcus aureus X1.1; test: MIC, standard agar-dilution assay, Staphylococcus aureus X1.1; type: cell-based
[11] = test system: Mycoplasma gallisepticum; test: MIC, broth-dilution microtiter test, Mycoplasma gallisepticum; type: cell-based
From the text: as §1

[12] = test system: Staphylococcus epidermidis EPI1; test: MIC, standard agar-dilution assay, Staphylococcus epidermidis EPI1; type: cell-based
[13] = test system: Staphylococcus aureus V41; test: MIC, standard agar-dilution assay, Staphylococcus aureus V41; type: cell-based
[14] = test system: Staphylococcus aureus X400; test: MIC, standard agar-dilution assay, Staphylococcus aureus X400; type: cell-based
[15] = test system: Staphylococcus aureus; test: MIC, broth-dilution microtiter test, Staphylococcus aureus; type: cell-based
From the text: as §1

[16] = test system: Streptococcus pyogenes C203; test: MIC, standard agar-dilution assay, Streptococcus pyogenes C203; type: cell-based
[17] = test system: Pasteurella hemolytica 22C; test: MIC, broth-dilution microtiter test, Pasteurella hemolytica 22C; type: cell-based; conditions: Pasteurella hemolytica 22C, broth-dilution microtiter
From the text: as §1

[18] = test system: Haemophilus influenzae Holt; test: MIC, standard agar-dilution assay, Haemophilus influenzae Holt; type: cell-based
[19] = test system: Haemophilus influenzae R252; test: MIC, standard agar-dilution assay, Haemophilus influenzae R252; type: cell-based; conditions: Haemophilus influenzae R252, ampicillin-resistant strain
[20] = test system: Streptococcus Group 9960; test: MIC, standard agar-dilution assay, Streptococcus Group 9960; type: cell-based; conditions: Streptococcus Group 9960, agar dilution
[21] = test system: Streptococcus pyogenes C203; test: In vivo protection of mice experimentally infected with S. pyogenes C203; conditions: mice, doses given 1 and 4 hours post-infection; for ED50: Streptococcus pyogenes
Experimental: The C-20 modified derivatives of this invention have shown in vivo antimicrobial activity against experimentally-induced infections in laboratory animals. When two doses of test compound were administered to mice experimentally infected with S. pyogenes C203, the activity observed was measured as an ED50 value [effective dose in mg/kg to protect 50% of the test animals: see Warren Wick, et al., J. Bacteriol. 81, 233-235 (1961)].

[22] = Pasteurella multocida 60A, avian isolate, broth-dilution microtiter, read-out: MIC
[23] = Staphylococcus epidermidis, EPI2
[24] = Streptococcus equinus, Streptococcus bovis 80, broth-dilution microtiter, read-out: MIC
[25] = Mycoplasmopsis synoviae, Mycoplasma synoviae, broth-dilution microtiter, read-out: MIC
[26] = Mycoplasma hyorhinis, broth-dilution microtiter, read-out: MIC
[27] = Pasteurella multocida 17E, bovine isolate, broth-dilution microtiter, read-out: MIC
[28] = Staphylococcus epidermidis, EPI1
[29] = Haemophilus influenzae Holt, ampicillin-sensitive strain, read-out: MIC

CCOC(=O)NN(CCC1CC(C)C(=O)C=CC(C)=CC(COC2OC(C)C(O)C(OC)C2OC)C(CC)OC(=O)CC(O)C(C)C1OC1OC(C)C(OC2CC(C)(O)C(O)C(C)O2)C(N(C)C)C1O)C(=O)OCC (centres unmarked) [Compound 9, 20-DH-DO-20-[N-(Ethoxycarbonyl)-N-(ethoxycarbonylamino)]aminotylosin]
MIC [1, 22]: > 50 µg/mL | MIC [2, 23]: 2 µg/mL (≈ 1.86 µM) | MIC [3, 24]: > 50 µg/mL | MIC [4, 25]: 25 µg/mL (≈ 23.2 µM) | MIC [5]: > 128 µg/mL | MIC ([6]; Streptococcus pneumoniae): 2 µg/mL (≈ 1.86 µM) | MIC ([7]; Staphylococcus aureus, S13E): 2 µg/mL (≈ 1.86 µM) | MIC [8, 26]: > 50 µg/mL | MIC [9, 27]: > 50 µg/mL | MIC ([10]; Staphylococcus aureus, X1.1): 2 µg/mL (≈ 1.86 µM) | MIC ([11]; Mycoplasmoides gallisepticum): 1.56 µg/mL (≈ 1.45 µM) | MIC [12, 28]: 4 µg/mL (≈ 3.72 µM) | MIC ([13]; Staphylococcus aureus, V41): 2 µg/mL (≈ 1.86 µM) | MIC ([14]; Staphylococcus aureus, X400): 8 µg/mL (≈ 7.43 µM) | MIC [15]: 6.25 µg/mL (≈ 5.81 µM) | MIC ([16]; Streptococcus pyogenes, C203): 16 µg/mL (≈ 14.9 µM) | MIC ([17]; read-out: MIC): > 50 µg/mL | MIC [18, 29]: > 128 µg/mL | MIC ([19]; read-out: MIC): > 128 µg/mL | MIC ([20]; GROUP9960, read-out: MIC): > 128 µg/mL

CCC1OC(=O)CC(O)C(C)C(OC2OC(C)C(O)C(N(C)C)C2O)C(CCOc2nnc(-c3ccccc3)c(-c3ccccc3)n2)CC(C)C(=O)C=CC(C)=CC1COC1OC(C)C(O)C(OC)C1OC (centres unmarked) [Compound 50, 20-DH-20-O-(5,6-Diphenyl-1,2,4-triazin-3-yl)desmycosin]
MIC ([1]; Pasteurella multocida 60A, avian isolate, broth-dilution microtiter): 25 µg/mL (≈ 24.9 µM) | MIC ([2]; Staphylococcus epidermidis EPI2, agar dilution): 0.5 µg/mL (≈ 0.497 µM) | MIC ([3]; Streptococcus bovis 80, broth-dilution microtiter): 3.12 µg/mL (≈ 3.1 µM) | MIC ([4]; Mycoplasma synoviae, broth-dilution microtiter): 0.39 µg/mL (≈ 0.388 µM) | MIC ([5]; Streptococcus Group D X66, agar dilution): 4 µg/mL (≈ 3.98 µM) | MIC ([6]; Streptococcus pneumoniae Park I, agar dilution): 0.5 µg/mL (≈ 0.497 µM) | MIC ([7]; Staphylococcus aureus S13E, agar dilution): 0.5 µg/mL (≈ 0.497 µM) | MIC ([8]; Mycoplasma hyorhinis, broth-dilution microtiter): 12.5 µg/mL (≈ 12.4 µM) | MIC ([9]; Pasteurella multocida 17E, bovine isolate, broth-dilution microtiter): 25 µg/mL (≈ 24.9 µM) | MIC ([10]; Staphylococcus aureus X1.1, agar dilution): 0.5 µg/mL (≈ 0.497 µM) | MIC ([11]; Mycoplasma gallisepticum, broth-dilution microtiter): ≤ 0.048 µg/mL | MIC ([12]; Staphylococcus epidermidis EPI1, agar dilution): 0.5 µg/mL (≈ 0.497 µM) | MIC ([13]; Staphylococcus aureus V41, penicillin-resistant strain, agar dilution): 0.5 µg/mL (≈ 0.497 µM) | MIC ([14]; Staphylococcus aureus X400, methicillin-resistant strain, agar dilution): 1 µg/mL (≈ 0.995 µM) | ED50, Oral ([21]; oral): > 50 mg/kg × 2 | ED50, Subcutaneous ([21]; subcutaneous): > 10 mg/kg × 2 | MIC ([15]; broth-dilution microtiter): 1.56 µg/mL (≈ 1.55 µM) | MIC ([16]; Streptococcus pyogenes C203, agar dilution): 0.5 µg/mL (≈ 0.497 µM) | MIC [17]: -- (Not active at 50 mcg/ml, the highest level tested) | MIC ([18]; Haemophilus influenzae Holt, ampicillin-sensitive strain, agar dilution): 64 µg/mL (≈ 63.7 µM) | MIC ([19]; agar dilution): 64 µg/mL (≈ 63.7 µM) | MIC [20]: 4 µg/mL (≈ 3.98 µM)

CCC1OC(=O)CC(O)C(C)C(OC2OC(C)C(OC3CC(C)(O)C(O)C(C)O3)C(N(C)C)C2O)C(CCN2C(=O)c3ccccc3C2=O)CC(C)C(=O)C=CC(C)=CC1COC1OC(C)C(O)C(OC)C1OC (centres unmarked) [Compound 1, 20-DH-DO-20-N-Phthalimidotylosin]
MIC [1, 22]: > 50 µg/mL | MIC [2, 23]: 1 µg/mL (≈ 0.955 µM) | MIC ([3]; Streptococcus equinus, 80): 50 µg/mL (≈ 47.7 µM) | MIC ([4]; Mycoplasmopsis synoviae): 6.25 µg/mL (≈ 5.97 µM) | MIC ([6]; Streptococcus pneumoniae): 32 µg/mL (≈ 30.6 µM) | MIC ([7]; Staphylococcus aureus, S13E): 1 µg/mL (≈ 0.955 µM) | MIC [8, 26]: > 50 µg/mL | MIC ([9]; Pasteurella multocida, 17E): > 50 µg/mL | MIC ([10]; Staphylococcus aureus, X1.1): 1 µg/mL (≈ 0.955 µM) | MIC ([11]; Mycoplasmoides gallisepticum): 3.12 µg/mL (≈ 2.98 µM) | MIC [12, 28]: 1 µg/mL (≈ 0.955 µM) | MIC ([13]; Staphylococcus aureus, V41): 1 µg/mL (≈ 0.955 µM) | MIC ([14]; Staphylococcus aureus, X400): 2 µg/mL (≈ 1.91 µM) | ED50 ([21]; C203, sc, subcutaneous, read-out: ED50, Subcutaneous): > 6.3 mg/kg | ED50 ([21]; C203, oral, read-out: ED50, Oral): 71 mg/kg | MIC [15]: 6.25 µg/mL (≈ 5.97 µM) | MIC ([16]; Streptococcus pyogenes, C203): 2 µg/mL (≈ 1.91 µM) | MIC ([17]; read-out: MIC): > 50 µg/mL | MIC ([18]; Haemophilus influenzae): > 128 µg/mL | MIC ([19]; read-out: MIC): > 128 µg/mL | MIC ([20]; GROUP9960, read-out: MIC): 128 µg/mL (≈ 122 µM)

CCC1OC(=O)CC(O)C(C)C(OC2OC(C)C(O)C(N(C)C)C2O)C(CCO[N+](=O)[O-])CC(C)C(=O)C=CC(C)=CC1COC1OC(C)C(O)C(OC)C1OC (centres unmarked) [Compound 28, 20-DH-20-O-NO2-desmycosin]
MIC ([1]; Pasteurella multocida, 60A): 50 µg/mL (≈ 61.1 µM) | MIC [2, 23]: 0.25 µg/mL (≈ 0.305 µM) | MIC [3, 24]: 12.5 µg/mL (≈ 15.3 µM) | MIC [4, 25]: 0.78 µg/mL (≈ 0.952 µM) | MIC ([5]; Streptococcus Group D X66, agar dilution, read-out: MIC): 8 µg/mL (≈ 9.77 µM) | MIC ([6]; Streptococcus pneumoniae Park I, agar dilution, read-out: MIC): 2 µg/mL (≈ 2.44 µM) | MIC ([7]; Staphylococcus aureus, S13E): 0.25 µg/mL (≈ 0.305 µM) | MIC ([8]; Mycoplasma): 50 µg/mL (≈ 61.1 µM) | MIC [9, 27]: 25 µg/mL (≈ 30.5 µM) | MIC ([10]; Staphylococcus aureus, X1.1): 0.25 µg/mL (≈ 0.305 µM) | MIC ([11]; Mycoplasmoides gallisepticum, Mycoplasma gallisepticum, broth-dilution microtiter, read-out: MIC): 0.78 µg/mL (≈ 0.952 µM) | MIC [12, 28]: 0.25 µg/mL (≈ 0.305 µM) | MIC ([13]; Staphylococcus aureus, V41): 0.25 µg/mL (≈ 0.305 µM) | MIC ([14]; Staphylococcus aureus, X400): 0.25 µg/mL (≈ 0.305 µM) | MIC ([15]; broth-dilution microtiter, read-out: MIC): 1.56 µg/mL (≈ 1.9 µM) | MIC ([16]; Streptococcus pyogenes, C203): 0.25 µg/mL (≈ 0.305 µM) | MIC ([17]; read-out: MIC): 25 µg/mL (≈ 30.5 µM) | MIC [18, 29]: 16 µg/mL (≈ 19.5 µM) | MIC ([19]; read-out: MIC): 16 µg/mL (≈ 19.5 µM) | MIC ([20]; GROUP9960, read-out: MIC): 8 µg/mL (≈ 9.77 µM)
